{"source": "patent US20100322887A1", "about": "“HAIR NOURISHING COSMETIC” (SHOWA DENKO K.K., priority 2008, published 2010)", "key": {"Solubility in water": {"experiment": "Solubility in water", "conditions": "normal temperature"}, "male C3H/HeN Sic mice": {"tested_on": "male C3H/HeN Sic mice", "experiment": "Hair regrowth promotion test using mouse", "format": "in vivo", "conditions": "after 20 days", "method": "15 male C3H/HeN Sic 7-week old mice in the resting stage of the hair cycle had their hair at the back part shorn off carefully with an electric hair clipper and an electric shaver. These mice were divided into three groups each containing 5 mice. To the skin of the shorn part of each mouse in one group, 0.1 ml of a test sample shown in the following Table 4 was applied once a day, and to the skin of the shorn part of each mouse in another group, a base was applied in the same amount. The residual group in which nothing had been applied was regarded as an untreated control.\nAfter 20 days from the beginning of the experiments, the back part of each mouse was photographed. By the use of an image analyzing software (Image-J), a ratio of the area where the hair had regrown to the whole area of the hair shorn part was calculated, and the resulting ratio was regarded as a hair regrowth ratio. The hair regrowth ratio of each mouse was calculated, and statistical analysis of the hair regrowth ratio of each group was carried out. The results are shown in FIG. 1 and the following Table 5."}}, "data": [{"molecule": "COC1=C(OC)C(=O)C(C/C=C(\\C)CC/C=C(\\C)CC/C=C(\\C)CC/C=C(\\C)CC/C=C(\\C)CC/C=C(\\C)CC/C=C(\\C)CC/C=C(\\C)CC/C=C(\\C)CCC=C(C)C)=C(C)C1=O", "note": "[ubiquinone]", "values": [{"measurement": "solubility in water", "setting": "Solubility in water", "result": "less than 100 ppm"}]}, {"molecule": "tetrapotassium ubiquinol-1,4-diphosphate", "values": [{"measurement": "Hair regrowth ratio (%) Average", "setting": "male C3H/HeN Sic mice; 0.1 ml once a day on shorn back skin, in Macrogol 400:Macrogol 4000 = 9:1 base, n=5", "result": 58.45, "unit": "%"}, {"measurement": "hair regrowth ratio (in words)", "setting": "male C3H/HeN Sic mice; test sample group", "result": "tendency of enhancement"}]}]}
